According to the supplement of paper PMC10307832:

Assays:
Test in all cases: relative viability (nuclei count vs DMSO), 5 days (fraction); higher = more cells survive
17-AAG + Lapatinib = compound: C=CCNC1=C2C[C@@H](C)C[C@H](OC)[C@H](O)[C@@H](C)/C=C(\C)[C@H](OC(N)=O)[C@@H](OC)/C=C\C=C(/C)C(=O)NC(=CC1=O)C2=O [17-AAG] + CS(=O)(=O)CCNCc1ccc(-c2ccc3ncnc(Nc4ccc(OCc5cccc(F)c5)c(Cl)c4)c3c2)o1 [Lapatinib] (partner 2 µM)
Procedure, shortened: (§1)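 Nuclei were stained with Hoechst during a one-step fixation (final 0.05% Triton X-100, 1% formaldehyde, 1 ug/ml Hoechst) carried out 5 days after dosing, then counted on 4× images. The cells, lung cancer lines in 1536-well plates, had been dosed by pin tool the day after seeding with one drug alone or a fixed anchor-drug dose plus five library-drug doses (not always all listed) in √10 steps. Relative viability is the nuclei count in treated wells divided by that in vehicle wells, and each value is the median of duplicate plates.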

17-AAG + Decitabine = compound: C=CCNC1=C2C[C@@H](C)C[C@H](OC)[C@H](O)[C@@H](C)/C=C(\C)[C@H](OC(N)=O)[C@@H](OC)/C=C\C=C(/C)C(=O)NC(=CC1=O)C2=O [17-AAG] + Nc1ncn([C@H]2C[C@H](O)[C@@H](CO)O2)c(=O)n1 [Decitabine] (partner 2 µM)
Procedure, shortened: as §1

17-AAG + Olaparib = compound: C=CCNC1=C2C[C@@H](C)C[C@H](OC)[C@H](O)[C@@H](C)/C=C(\C)[C@H](OC(N)=O)[C@@H](OC)/C=C\C=C(/C)C(=O)NC(=CC1=O)C2=O [17-AAG] + O=C(c1cc(Cc2n[nH]c(=O)c3ccccc23)ccc1F)N1CCN(C(=O)C2CC2)CC1 [Olaparib] (partner 8 µM)
Procedure, shortened: as §1

17-AAG + AZD7762 = compound: C=CCNC1=C2C[C@@H](C)C[C@H](OC)[C@H](O)[C@@H](C)/C=C(\C)[C@H](OC(N)=O)[C@@H](OC)/C=C\C=C(/C)C(=O)NC(=CC1=O)C2=O [17-AAG] + NC(=O)Nc1cc(-c2cccc(F)c2)sc1C(=O)N[C@H]1CCCNC1 [AZD7762] (partner 0.2 µM)
Procedure, shortened: as §1

Cell Line | relative viability (17-AAG + Lapatinib; first compound 0.00128 µM) | relative viability (17-AAG + Lapatinib; first compound 0.004048 µM) | relative viability (17-AAG + Lapatinib; first compound 0.0128 µM) | relative viability (17-AAG + Lapatinib; first compound 0.04048 µM) | relative viability (17-AAG + Lapatinib; first compound 0.128 µM) | relative viability (17-AAG + Decitabine; first compound 0.00128 µM) | relative viability (17-AAG + Decitabine; first compound 0.004048 µM) | relative viability (17-AAG + Decitabine; first compound 0.0128 µM) | relative viability (17-AAG + Decitabine; first compound 0.04048 µM) | relative viability (17-AAG + Decitabine; first compound 0.128 µM) | relative viability (17-AAG + Olaparib; first compound 0.00128 µM) | relative viability (17-AAG + Olaparib; first compound 0.004048 µM) | relative viability (17-AAG + Olaparib; first compound 0.0128 µM) | relative viability (17-AAG + Olaparib; first compound 0.04048 µM) | relative viability (17-AAG + Olaparib; first compound 0.128 µM) | relative viability (17-AAG + AZD7762; first compound 0.00128 µM) | relative viability (17-AAG + AZD7762; first compound 0.004048 µM) | relative viability (17-AAG + AZD7762; first compound 0.0128 µM) | relative viability (17-AAG + AZD7762; first compound 0.04048 µM) | relative viability (17-AAG + AZD7762; first compound 0.128 µM)
HOP-62 | 0.875 | 1.03 | 0.634 | 0.12 | 0.0921 | 0.24 | 0.238 | 0.25 | 0.167 | 0.172 | 0.445 | 0.411 | 0.22 | 0.171 | 0.0948 | 0.733 | 0.416 | 0.256 | 0.11 | 0.0928
LC-2-ad | 1.01 | 0.877 | 0.548 | 0.126 | 0.0893 | 0.776 | 0.876 | 0.713 | 0.645 | 0.227 | 0.751 | 0.728 | 0.643 | 0.475 | 0.225 | 0.841 | 0.835 | 0.714 | 0.297 | 0.161
LCLC-97TM1 | 0.903 | 1.12 | 0.647 | 0.405 | 0.0945 | 0.197 | 0.21 | 0.255 | 0.259 | 0.185 | 0.423 | 0.359 | 0.406 | 0.302 | 0.255 | 0.281 | 0.359 | 0.278 | 0.21 | 0.0815
LK-2 | 1.04 | 1.01 | 0.752 | 0.464 | 0.158 | 0.269 | 0.37 | 0.187 | 0.0931 | 0.0957 | 0.831 | 0.765 | 0.266 | 0.149 | 0.123 | 0.481 | 0.522 | 0.149 | 0.115 | 0.0799
LOU-NH91 | 0.852 | 0.795 | 0.521 | 0.328 | 0.36 | 0.806 | 0.724 | 0.623 | 0.47 | 0.393 | 0.894 | 0.759 | 0.546 | 0.395 | 0.386 | 0.765 | 0.71 | 0.444 | 0.382 | 0.347
LU99A | 0.885 | 0.965 | 0.323 | 0.288 | 0.141 | 0.917 | 0.915 | 0.863 | 0.749 | 0.213 | 0.271 | 0.26 | 0.237 | 0.165 | 0.162 | 0.372 | 0.284 | 0.115 | 0.179 | 0.074
LXF-289 | 0.907 | 0.874 | 0.694 | 0.449 | 0.152 | 0.4 | 0.473 | 0.355 | 0.297 | 0.19 | 1.06 | 0.936 | 0.889 | 0.817 | 0.135 | 1.09 | 1.1 | 0.617 | 0.151 | 0.0926
NCI-H23 | 0.933 | 0.882 | 0.233 | 0.204 | 0.131 | 0.294 | 0.226 | 0.251 | 0.185 | 0.16 | 0.364 | 0.296 | 0.155 | 0.109 | 0.107 | 0.201 | 0.4 | 0.18 | 0.122 | 0.0996
NCI-H322M | 0.616 | 0.612 | 0.65 | 0.522 | 0.294 | 0.811 | 0.706 | 0.641 | 0.475 | 0.442 | 0.781 | 0.857 | 0.409 | 0.418 | 0.414 | 0.633 | 0.415 | 0.405 | 0.382 | 0.413
NCI-H358 | 0.504 | 0.324 | 0.162 | 0.137 | 0.121 | 0.198 | 0.141 | 0.0682 | 0.0758 | 0.062 | 0.606 | 0.522 | 0.0873 | 0.0667 | 0.0637 | 0.522 | 0.381 | 0.132 | 0.142 | 0.139
NCI-H460 | 0.962 | 0.451 | 0.016 | 0.0135 | 0.0137 | 0.333 | 0.321 | 0.0276 | 0.0244 | 0.0254 | 0.476 | 0.318 | 0.0627 | 0.0448 | 0.0462 | 0.549 | 0.676 | 0.0907 | 0.0489 | 0.0524
NCI-H596 | 1.19 | 1.06 | 1.17 | 0.996 | 0.818 | 1.05 | 0.988 | 0.899 | 0.891 | 0.502 | 0.784 | 0.739 | 0.674 | 0.48 | 0.371 | 1.12 | 1.05 | 1.18 | 1.04 | 0.397
NCI-H647 | 1.15 | 0.386 | 0.0807 | 0.0919 | 0.0634 | 0.365 | 0.272 | 0.0949 | 0.129 | 0.102 | 0.575 | 0.237 | 0.0687 | 0.0686 | 0.0642 | 0.487 | 0.175 | 0.0631 | 0.074 | 0.0589
NCI-H650 | 0.982 | 1.05 | 0.62 | 0.333 | 0.215 | 0.315 | 0.339 | 0.384 | 0.302 | 0.196 | 0.392 | 0.355 | 0.412 | 0.212 | 0.0846 | 0.882 | 1.11 | 0.63 | 0.324 | 0.263
NCI-H727 | 0.775 | 0.765 | 0.829 | 0.238 | 0.342 | 0.871 | 0.915 | 0.875 | 0.538 | 0.411 | 0.619 | 0.737 | 0.696 | 0.707 | 0.386 | 0.6 | 0.491 | 0.56 | 0.298 | 0.305
